Measurements published in BigSolDB 2.1.

CN1CC(O)c2cc(N=NC(N)=O)c(O)cc21 (centres undefined)
solubility (mole fraction)
Conditions	278.15 K	283.15 K	288.15 K	293.15 K	298.15 K	303.15 K	308.15 K	313.15 K	318.15 K
in DMF	0.00095	0.00115	0.00129	0.0015	0.00177	0.00202	0.00231	0.00277	0.00335
in DMSO	0.00619	0.0073	0.00863	0.01	0.0113	0.0129	0.0146	0.0159	0.0174
in ethanol	1.8e-05	2.15e-05	2.42e-05	3.02e-05	3.67e-05	4.29e-05	5.24e-05	6.97e-05	8.54e-05
in methanol	3.56e-05	4.38e-05	5.31e-05	6.89e-05	8.35e-05	9.97e-05	0.00012	0.000147	0.000173
in n-propanol	1.75e-05	2.05e-05	2.41e-05	2.77e-05	3.18e-05	3.66e-05	4.5e-05	5.92e-05	7.31e-05
in water	2.81e-05	3.26e-05	3.78e-05	4.4e-05	5.15e-05	6.03e-05	6.87e-05	7.98e-05	9.69e-05
